According to patent US10004701B2, “Methods and compositions for treating infection” (UNIVERSITY OF ROCHESTER, priority 2012, dated 2018):
Like-named read-outs stand apart in the source and are kept apart here.

Experiments:
Assay in all cases: AK assay 384-well format, Prestwick library screening
[1] = system: E. coli; type: cell-based, Escherichia coli; conditions: 50 μM final drug concentration; for fold induction at 50 µM: Escherichia coli, 3 h
[2] = system: K. pneumoniae; type: cell-based, Klebsiella pneumoniae; conditions: 50 μM final drug concentration; for fold induction at 50 µM: Klebsiella pneumoniae, 3 h
[3] = system: A. baumannii strain 98-37-09; type: cell-based, Acinetobacter baumannii; conditions: 50 μM final drug concentration; for fold induction at 50 µM: Acinetobacter baumannii, 983709, 3 h
[4] = system: E. cloacae; type: cell-based, Enterobacter cloacae; conditions: 50 μM final drug concentration; for fold induction at 50 µM: Enterobacter cloacae, 3 h
[5] = system: S. aureus strain USA300-0114; type: cell-based, Staphylococcus aureus; conditions: 50 μM final drug concentration; for fold induction at 50 µM: Staphylococcus aureus, USA300, 3 h
[6] = system: E. faecium; type: cell-based, Enterococcus faecium; conditions: 50 μM final drug concentration; for fold induction at 50 µM: Enterococcus faecium, 3 h
[7] = system: P. aeruginosa; type: cell-based, Pseudomonas aeruginosa; conditions: 50 μM final drug concentration; for fold induction at 50 µM: Pseudomonas aeruginosa, 3 h
[8] = cutoff for positive-scoring molecules 3-fold increase, read-out: AK-based Prestwick Library Screening Results, E. coli (fold increase in extracellular AK activity)
[9] = cutoff for positive-scoring molecules 3-fold increase, read-out: AK-based Prestwick Library Screening Results, K. pneumoniae (fold increase in extracellular AK activity)
[10] = cutoff for positive-scoring molecules 3-fold increase, read-out: AK-based Prestwick Library Screening Results, A. baumannii (fold increase in extracellular AK activity)
[11] = cutoff for positive-scoring molecules 3-fold increase, read-out: AK-based Prestwick Library Screening Results, E. cloacae (fold increase in extracellular AK activity)
[12] = cutoff for positive-scoring molecules 3-fold increase, read-out: AK-based Prestwick Library Screening Results, S. aureus (fold increase in extracellular AK activity)
[13] = cutoff for positive-scoring molecules 3-fold increase, read-out: AK-based Prestwick Library Screening Results, E. faecium (fold increase in extracellular AK activity)
[14] = cutoff for positive-scoring molecules 3-fold increase, read-out: AK-based Prestwick Library Screening Results, P. aeruginosa (fold increase in extracellular AK activity)
[15] = planktonic, cutoff for positive-scoring molecules 3-fold increase, read-out: AK-based Prestwick Library Screening Results, E. coli (fold increase in extracellular AK activity)
[16] = planktonic, cutoff for positive-scoring molecules 3-fold increase, read-out: AK-based Prestwick Library Screening Results, K. pneumoniae (fold increase in extracellular AK activity)
[17] = planktonic, cutoff for positive-scoring molecules 3-fold increase, read-out: AK-based Prestwick Library Screening Results, A. baumannii (fold increase in extracellular AK activity)
[18] = planktonic, cutoff for positive-scoring molecules 3-fold increase, read-out: AK-based Prestwick Library Screening Results, E. cloacae (fold increase in extracellular AK activity)
[19] = planktonic, cutoff for positive-scoring molecules 3-fold increase, read-out: AK-based Prestwick Library Screening Results, S. aureus (fold increase in extracellular AK activity)
[20] = planktonic, cutoff for positive-scoring molecules 3-fold increase, read-out: AK-based Prestwick Library Screening Results, E. faecium (fold increase in extracellular AK activity)
[21] = planktonic, cutoff for positive-scoring molecules 3-fold increase, read-out: AK-based Prestwick Library Screening Results, P. aeruginosa (fold increase in extracellular AK activity)
[22] = 384-well format, cutoff for positive-scoring molecules 3-fold increase, read-out: AK-based Prestwick Library Screening Results, E. coli (increase in extracellular AK activity)
[23] = 384-well format, cutoff for positive-scoring molecules 3-fold increase, read-out: AK-based Prestwick Library Screening Results, K. pneumoniae (increase in extracellular AK activity)
[24] = 384-well format, cutoff for positive-scoring molecules 3-fold increase, read-out: AK-based Prestwick Library Screening Results, A. baumannii (increase in extracellular AK activity)
[25] = 384-well format, cutoff for positive-scoring molecules 3-fold increase, read-out: AK-based Prestwick Library Screening Results, E. cloacae (increase in extracellular AK activity)
[26] = 384-well format, cutoff for positive-scoring molecules 3-fold increase, read-out: AK-based Prestwick Library Screening Results, S. aureus (increase in extracellular AK activity)
[27] = 384-well format, cutoff for positive-scoring molecules 3-fold increase, read-out: AK-based Prestwick Library Screening Results, E. faecium (increase in extracellular AK activity)
[28] = 384-well format, cutoff for positive-scoring molecules 3-fold increase, read-out: AK-based Prestwick Library Screening Results, P. aeruginosa (increase in extracellular AK activity)
[29] = planktonic, cutoff for positive 3-fold increase, read-out: AK-based Prestwick Library Screening Results, E. coli (fold increase in extracellular AK activity)
[30] = planktonic, cutoff for positive 3-fold increase, read-out: AK-based Prestwick Library Screening Results, K. pneumoniae (fold increase in extracellular AK activity)
[31] = planktonic, cutoff for positive 3-fold increase, read-out: AK-based Prestwick Library Screening Results, A. baumannii (fold increase in extracellular AK activity)
[32] = planktonic, cutoff for positive 3-fold increase, read-out: AK-based Prestwick Library Screening Results, E. cloacae (fold increase in extracellular AK activity)
[33] = planktonic, cutoff for positive 3-fold increase, read-out: AK-based Prestwick Library Screening Results, S. aureus (fold increase in extracellular AK activity)
[34] = planktonic, cutoff for positive 3-fold increase, read-out: AK-based Prestwick Library Screening Results, E. faecium (fold increase in extracellular AK activity)
[35] = planktonic, cutoff for positive 3-fold increase, read-out: AK-based Prestwick Library Screening Results, P. aeruginosa (fold increase in extracellular AK activity)

NS(=O)(=O)c1cc2c(cc1C(F)(F)F)NC(Cc1ccccc1)NS2(=O)=O (centres unmarked) [Bendroflumethiazide]
fold induction at 50 µM [1, 8]: 1.3
fold induction at 50 µM [2, 9]: 1.1
fold induction at 50 µM [3, 10]: 1.3
fold induction at 50 µM [4, 11]: 1.5
fold induction at 50 µM [5, 12]: 1.3
fold induction at 50 µM [6, 13]: 1.2
fold induction at 50 µM [7, 14]: 1.1

O=c1cc(-c2ccc(O)c(O)c2)oc2cc(O)cc(O)c12 [Luteolin]
fold induction at 50 µM [1, 8]: 0.4
fold induction at 50 µM [2, 9]: 0.5
fold induction at 50 µM [3, 10]: 0.3
fold induction at 50 µM [4, 11]: 1.6
fold induction at 50 µM [5, 12]: 0.2
fold induction at 50 µM [6, 13]: 0.5
fold induction at 50 µM [7, 14]: 0.5

CCOC(=O)C1=C(C)NC(C)=C(C(=O)OC)C1c1cccc([N+](=O)[O-])c1 (centres unmarked) [Nitrendipine]
fold induction at 50 µM [1, 15]: 0.8
fold induction at 50 µM [2, 16]: 0.8
fold induction at 50 µM [3, 17]: 0.9
fold induction at 50 µM [4, 18]: 1.4
fold induction at 50 µM [5, 19]: 0.4
fold induction at 50 µM [6, 20]: 0.9
fold induction at 50 µM [7, 21]: 0.9

COc1cc(NS(=O)(=O)c2ccc(N)cc2)nc(OC)n1 [Sulfadimethoxine]
fold induction at 50 µM [1, 15]: 0.6
fold induction at 50 µM [2, 16]: 0.5
fold induction at 50 µM [3, 17]: 0.9
fold induction at 50 µM [4, 18]: 0.4
fold induction at 50 µM [5, 19]: 0.5
fold induction at 50 µM [6, 20]: 0.9
fold induction at 50 µM [7, 21]: 0.4

OC(c1ccccc1)(c1ccccc1)C1CCNCC1 [Azacyclonol]
fold induction at 50 µM ([1]; 384-well format, […], read-out: AK-based Prestwick Library Screening Results, E. coli (increase in extracellular AK activity)): 0.6
fold induction at 50 µM ([2]; 384-well format, […], read-out: AK-based Prestwick Library Screening Results, K. pneumoniae (increase in extracellular AK activity)): 0.6
fold induction at 50 µM ([3]; 384-well format, […], read-out: AK-based Prestwick Library Screening Results, A. baumannii (increase in extracellular AK activity)): 0.6
fold induction at 50 µM ([4]; 384-well format, […], read-out: AK-based Prestwick Library Screening Results, E. cloacae (increase in extracellular AK activity)): 0.9
fold induction at 50 µM ([5]; 384-well format, […], read-out: AK-based Prestwick Library Screening Results, S. aureus (increase in extracellular AK activity)): 0.7
fold induction at 50 µM ([6]; 384-well format, […], read-out: AK-based Prestwick Library Screening Results, E. faecium (increase in extracellular AK activity)): 0.9
fold induction at 50 µM ([7]; 384-well format, […], read-out: AK-based Prestwick Library Screening Results, P. aeruginosa (increase in extracellular AK activity)): 0.6

Nc1ccc(S(=O)(=O)Nc2nccs2)cc1 [Sulfathiazole]
fold induction at 50 µM [1, 22]: 0.7
fold induction at 50 µM [2, 23]: 0.6
fold induction at 50 µM [3, 24]: 1
fold induction at 50 µM [4, 25]: 0.7
fold induction at 50 µM [5, 26]: 0.6
fold induction at 50 µM [6, 27]: 0.9
fold induction at 50 µM [7, 28]: 0.6

C[C@H](CCC(=O)NCC(=O)O)[C@H]1CC[C@H]2[C@@H]3[C@H](O)C[C@@H]4C[C@H](O)CC[C@]4(C)[C@H]3C[C@H](O)[C@]12C [Glycocholic acid]
fold induction at 50 µM [1, 29]: 1.1
fold induction at 50 µM [2, 30]: 1
fold induction at 50 µM [3, 31]: 1.1
fold induction at 50 µM [4, 32]: 1.4
fold induction at 50 µM [5, 33]: 1.2
fold induction at 50 µM [6, 34]: 1.1
fold induction at 50 µM [7, 35]: 1.1

Cc1cc2c(C(C)C)c(O)c(O)c(C=O)c2c(O)c1-c1c(C)cc2c(C(C)C)c(O)c(O)c(C=O)c2c1O [Gossypol]
fold induction at 50 µM ([1]; planktonic, […], read-out: AK-based Prestwick Library Screening Results, E. coli (fold increase in extracellular AK activity)): 0.6
fold induction at 50 µM ([2]; planktonic, […], read-out: AK-based Prestwick Library Screening Results, K. pneumoniae (fold increase in extracellular AK activity)): 0.3
fold induction at 50 µM ([3]; planktonic, […], read-out: AK-based Prestwick Library Screening Results, A. baumannii (fold increase in extracellular AK activity)): 0.4
fold induction at 50 µM ([4]; planktonic, […], read-out: AK-based Prestwick Library Screening Results, E. cloacae (fold increase in extracellular AK activity)): 1.5
fold induction at 50 µM ([5]; planktonic, […], read-out: AK-based Prestwick Library Screening Results, S. aureus (fold increase in extracellular AK activity)): 0.2
fold induction at 50 µM ([6]; planktonic, […], read-out: AK-based Prestwick Library Screening Results, E. faecium (fold increase in extracellular AK activity)): 1.3
fold induction at 50 µM ([7]; planktonic, […], read-out: AK-based Prestwick Library Screening Results, P. aeruginosa (fold increase in extracellular AK activity)): 0.5

O=C1c2ccccc2C(=O)C1c1ccccc1 [Phenindione]
fold induction at 50 µM [1, 29]: 1.2
fold induction at 50 µM [2, 30]: 1.1
fold induction at 50 µM [3, 31]: 1.1
fold induction at 50 µM [4, 32]: 1.3
fold induction at 50 µM [5, 33]: 1.1
fold induction at 50 µM [6, 34]: 0.9
fold induction at 50 µM [7, 35]: 0.9

CC1CCC2C(C)C3C(CC4C5CC=C6CC(OC7OC(CO)C(O)C(OC8OC(CO)C(O)C(O)C8O)C7OC7OC(C)C(O)C(O)C7O)CCC6(C)C5CCC43C)N2C1 (stereo not drawn) [Solanine alpha]
AK-based Prestwick Library Screening Results, E. coli (fold increase in extracellular AK activity) ([1]; planktonic, […]): 1.2
AK-based Prestwick Library Screening Results, K. pneumoniae (fold increase in extracellular AK activity) ([2]; planktonic, […]): 1.2
AK-based Prestwick Library Screening Results, A. baumannii (fold increase in extracellular AK activity) ([3]; planktonic, […]): 1.3
AK-based Prestwick Library Screening Results, E. cloacae (fold increase in extracellular AK activity) ([4]; planktonic, […]): 1.7
AK-based Prestwick Library Screening Results, S. aureus (fold increase in extracellular AK activity) ([5]; planktonic, […]): 1.2
AK-based Prestwick Library Screening Results, E. faecium (fold increase in extracellular AK activity) ([6]; planktonic, […]): 1.0
AK-based Prestwick Library Screening Results, P. aeruginosa (fold increase in extracellular AK activity) ([7]; planktonic, […]): 1.2

Nc1nc2c(ncn2COCCO)c(=O)[nH]1 [Acyclovir]
fold induction at 50 µM [1, 22]: 0.5
fold induction at 50 µM [2, 23]: 0.5
fold induction at 50 µM [3, 24]: 0.4
fold induction at 50 µM [4, 25]: 0.3
fold induction at 50 µM [5, 26]: 0.5
fold induction at 50 µM [6, 27]: 0.9
fold induction at 50 µM [7, 28]: 0.4
